Data on six molecules can be found in publication PMC11960843, “Exploration of the tunability of BRD4 degradation by DCAF16 trans-labelling covalent glues” (European journal of medicinal chemistry, 2024).

As usually defined, the IC50 is the midpoint of a concentration-inhibition curve. For orientation: half-life means how long it takes for the measured level to halve. Usually DC50 stands for the concentration at which degradation of the target reaches its halfway point.

One data set has as its target BRD4BD1 (Homo sapiens, UniProt O60885). The data set can be described thus: BRD4 AlphaScreen competition assay (JQ1-biotin displacement), BRD4BD1. Format: binding. (Bead proximity is the source of the signal in Alpha formats.)
Data set [1] deals with T1, BRD4BD2-DCAF16 ternary complex (Homo sapiens, UniProt O60885+Q9NXF7).
T1 construct: E3 ligase to bromodomain 2 (BRD4BD2); His6 (N); StrepII (N); Avi (N); made in house; host or cells: BRD4BD2: E. coli (pET100/D-TOPO)
T1 sequence (Q9NXF7 whole entry, other chains not shown): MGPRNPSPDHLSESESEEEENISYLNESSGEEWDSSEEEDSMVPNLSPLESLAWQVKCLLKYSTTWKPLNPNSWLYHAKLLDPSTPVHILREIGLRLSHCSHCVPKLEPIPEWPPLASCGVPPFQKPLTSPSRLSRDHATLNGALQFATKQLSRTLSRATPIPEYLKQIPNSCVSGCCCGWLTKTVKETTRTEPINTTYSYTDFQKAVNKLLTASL
As to the kind of experiment: DDB1-DCAF16-BRD4BD2 TR-FRET ternary complex formation assay. Particulars: for TR-FRETmax (520 nm/490 nm ratio): 6 h degrader incubation; for BRD4BD2-DCAF16 ternary complex formation / DCAF16 recruitment (in words): time-dependent TR-FRET; for incubation time of saturation / maximum TR-FRET signal: measured at 1, 2, 4, 6 and 24 h. Format: biochemical. The text has this:
To determine the relationship between covalent warheads and DCAF16 recruitment to BRD4BD2, we used a time-resolved fluorescence energy transfer (TR-FRET) assay to measure induced BRD4BD2-DCAF16 ternary complex formation (Fig. 3A).
Furthermore, we wanted to determine the kinetics of the BRD4BD2-DCAF16 interaction given its covalent nature. […] Additionally, to understand the relationship between ternary complex formation kinetics and warhead reactivity we measured the depletion of the covalent analogs in the presence of glutathione using MS (Table S2). […] Titrations of compounds to induce the DCAF16-BRD4BD complex were carried out by mixing 100 nM biotinylated BRD4BD2, 500 nM BODIPY-FL labeled DDB1ΔB-DCAF16 variants, and 2 nM terbium-coupled streptavidin (Invitrogen) in an assay buffer containing 50 mM HEPES pH 8.0, 200 mM NaCl, 0.1% Pluronic F-68 solution (Sigma), 0.5% bovine serum albumin (BSA) (w/v) and 1 mM TCEP. […] The TR-FRET signal of each data point was extracted by calculating the 520/490 nm ratio.

The subject of a further data set is glutathione. The data set can be described thus: GSH stability (glutathione reactivity) assay by LC-MS/MS. Format: physicochemical. Particulars: PBS containing 5 mM reduced glutathione; PBS + 5 mM GSH; extrapolated from 240 min assay. The text has this:
Furthermore, we wanted to determine the kinetics of the BRD4BD2-DCAF16 interaction given its covalent nature. […] Additionally, to understand the relationship between ternary complex formation kinetics and warhead reactivity we measured the depletion of the covalent analogs in the presence of glutathione using MS (Table S2). […].

Data set [2] deals with T2, BRD4 (Homo sapiens, UniProt O60885). As to the kind of experiment: Washout experiment, Western blot of BRD4 degradation in K562 cells. Format: cell-based. Further details: an 11 amino acid peptide knock-in tag to a protein-of-interest using CRISPR insertion; endogenous in cells. Conditions: K562, 1 μM; for BRD4 degradation after washout compared to no washout (in words): 4 h treatment, 20 h compound-free vs 24 h no washout. How it is done: This experiment involves cell treatment and incubation with a ‘covalent’ compound, followed by a wash-step where the cells are washed and resuspended in compound-free cell media.
Cells were washed with PBS and lysed in RIPA lysis buffer (Thermo Fisher Scientific) with Halt Protease Inhibitor Cocktail (Thermo Fisher Scientific) and Benzonase (Sigma-Aldrich) for 20 min on ice. […] Membranes were blocked in Intercept (PBS) Blocking Buffer (LI-COR Biosciences) and incubated with primary antibodies overnight at 4 °C. The membranes were then washed in Tris-buffered saline with Tween-20 (TBS-T), incubated for 1 h with secondary IRDye-conjugated antibodies (LI-COR Biosciences) and washed three times in TBS-T for 5 min before near-infrared western blot detection on an Odyssey Imaging System (LI-COR Biosciences).

Data set [3] deals with T3, BRD4BD2 (Homo sapiens, UniProt O60885). The data set can be described thus: BRD4 AlphaScreen competition assay (JQ1-biotin displacement), BRD4BD2. Format: binding.
Data set [4] concerns the target T3, BRD4BD2. As to the kind of experiment: BRD4BD2-eGFP and mCherry flow reporter degradation assay, wild type K562 cells. Particulars: for DCAF16 dependent BRD4BD2 degradation (in words) / DC50: K562 cells, 16 h incubation; for Dmax: K562, read-out: maximal degradation (Dmax/16h) of BRD4BD2, K562 cells, 16 h incubation; for DC50: read-out: DC50 of BRD4BD2 degradation.
Text: This assay involves the co-expression of mCherry with BRD4BD1/2 fused to an enhanced green fluorescent protein (eGFP) tag, and the subsequent fluorescence measurement of BRD4BD1/2-eGFP normalized to mCherry as a readout for BRD4BD1/2 degradation. It allows for a quantitative, rapid, and facile screening of several MGDs, in a dose-and time-dependent manner. […] Thus, the BRD4BD2 stability system was used to test all subsequent GNE011 analogs in wild type and DCAF16−/− cells.
One day after infection, reporter cells were selected with puromycin at a concentration of 2 μg/mL.
K562 cells stably expressing degradation reporter were dosed with DMSO or degraders at various times and concentrations using D300e Digital Dispenser (HP). The fluorescent signal was quantified by flow cytometry (LSRFortessa flow cytometer, BD Biosciences) and analyzed using FlowJo (flow cytometry analysis software, BD Biosciences). The geometric mean of the eGFP and mCherry fluorescent signal for round and mCherry-positive cells was calculated. GFP expression was normalized to mCherry signal and drug treatments were compared to DMSO controls.

The target in data set [5] is T2, BRD4. The data set can be described thus: Western blot of BRD4 degradation, wild-type K562 cells. Format: cell-based. Further details: an 11 amino acid peptide knock-in tag to a protein-of-interest using CRISPR insertion; endogenous in cells. Particulars: wild-type K562, 1 μM, 16 h. The procedure: (§1) Western blotting was used to determine the degradation potencies of the covalent BRD4 degraders.
(§2) Cells were washed with PBS and lysed in RIPA lysis buffer (Thermo Fisher Scientific) with Halt Protease Inhibitor Cocktail (Thermo Fisher Scientific) and Benzonase (Sigma-Aldrich) for 20 min on ice. The insoluble fraction was removed by centrifugation, the protein concentration was quantified using a BCA protein assay kit (Thermo Fisher Scientific), and an equal amount of lysate was run on SDS–PAGE 4–12% Bis–Tris Protein Gels (Thermo Fisher Scientific) and then transferred to nitrocellulose membrane with a XCell II Blot Module Wet Tank Transfer System (Thermo Fisher Scientific). Membranes were blocked in Intercept (PBS) Blocking Buffer (LI-COR Biosciences) and incubated with primary antibodies overnight at 4 °C. The membranes were then washed in Tris-buffered saline with Tween-20 (TBS-T), incubated for 1 h with secondary IRDye-conjugated antibodies (LI-COR Biosciences) and washed three times in TBS-T for 5 min before near-infrared western blot detection on an Odyssey Imaging System (LI-COR Biosciences).

Data set [6] deals with T2, BRD4. The data set can be described thus: BRD4-HiBiT assay, DCAF16 KO JURKAT cells. Format: cell-based. Further details: an 11 amino acid peptide knock-in tag to a protein-of-interest using CRISPR insertion; endogenous in cells; host or cells: JURKAT, HiBiT-edited (wild type or DCAF16 knockout). Particulars: 6 h. The procedure:
(§3) Thereafter, we sought to characterize the BRD4 cellular degradation potencies in a dose-dependent manner at a shorter time point to minimize secondary effects. This was performed using the bioluminescent HiBiT-BRD4 assay, which consists of an 11 amino acid peptide knock-in tag to a protein-of-interest using CRISPR insertion. A complementary polypeptide (LgBiT) detects and interacts with all HiBiT tagged proteins, thereby reconstituting a luminescent NanoBiT enzyme, that can be quantified by its bioluminescence. WT and DCAF16 KO JURKAT cell lines expressing the BRD4-HiBiT system were generated to quantify dose-dependent BRD4 degradation after 6 h incubation (Fig. 4C).
(§4) After 6 h, the plates were subjected to Nano-Glo HiBiT Lytic detection system (Promega, #N3040) as described in manufacturer's manual. The assays were performed in biological triplicate. DC50 values were determined using a non-linear regression curve fit in GraphPad PRISM 9.5.1.

For data set [7], the target named is T2, BRD4. As to the kind of experiment: Western blot of BRD4 degradation, DCAF16 KO K562 cells. Format: cell-based. Further details: an 11 amino acid peptide knock-in tag to a protein-of-interest using CRISPR insertion; endogenous in cells. Conditions: DCAF16 KO K562, 1 μM, 16 h. How it is done:
as §1, §2
On the technique in general: A western blot detects proteins with antibodies after separation by electrophoresis.

Data set [8] concerns the target T2, BRD4. As to the kind of experiment: BRD4-HiBiT assay, WT JURKAT cells. Format: cell-based. Conditions: 6 h. Further details: an 11 amino acid peptide knock-in tag to a protein-of-interest using CRISPR insertion; endogenous in cells; host or cells: JURKAT, HiBiT-edited (wild type or DCAF16 knockout). How it is done: as §3, §4
Background: HiBiT is a short tag that completes a luciferase, so light tracks the accessible tagged protein.

Like-named read-outs stand apart in the source and are kept apart here.

Turning to `COC(=O)/C=C/c1ccc(C2=N[C@@H](CC(=O)OC(C)(C)C)c3nnc(C)n3-c3sc(C)c(C)c32)cc1` [MMH269, methyl (S,E)-3-(4-(6-(2-(tert-butoxy)-2-oxoethyl)-2,3,9-trimethyl-6H-thieno[3,2-f][1,2,4]triazolo[4,3-a][1,4]diazepin-4-yl)phenyl)acrylate], on BRD4BD1 (read-out: IC50 BRD4BD1), the IC50 is 10.5 nM. In [1], the “TR-FRETmax (520 nm/490 nm ratio)” value amounted to 0.18 and the “BRD4BD2-DCAF16 ternary complex formation / DCAF16 recruitment (in words)” value is recorded as “no significant DCAF16 recruitment”. Moreover, the half-life with glutathione was more than 12.5 h. Moreover, the “BRD4 degradation without washout (in words)” value at BRD4 [2] (24 h no washout) was “showed BRD4 degradation in 24 h no washout experiments”. For the same molecule, the IC50 at BRD4BD2 [3] (read-out: IC50 BRD4BD2) turned out to be 5.07 nM. In addition, the “DCAF16 dependent BRD4BD2 degradation (in words)” value at BRD4BD2 [4] was “almost no DCAF16 dependent BRD4BD2 degradation”.

As to `Cc1sc2c(c1C)C(c1ccc(N)cc1)=N[C@@H](CC(=O)OC(C)(C)C)c1nnc(C)n1-2` [MMH248, tert-butyl (S)-2-(4-(4-aminophenyl)-2,3,9-trimethyl-6H-thieno[3,2-f][1,2,4]triazolo[4,3-a][1,4]diazepin-6-yl)acetate], the IC50 was 12.5 nM on BRD4BD1 and 4.29 nM on BRD4BD2 [3].

With `Cc1sc2c(c1C)C(c1ccc(C#CCO)cc1)=N[C@@H](CC(=O)OC(C)(C)C)c1nnc(C)n1-2` [TMX458, tert-butyl (S)-2-(4-(4-(3-hydroxyprop-1-yn-1-yl)phenyl)-2,3,9-trimethyl-6H-thieno[3,2-f][1,2,4]triazolo[4,3-a][1,4]diazepin-6-yl)acetate], the IC50 on BRD4BD1 (read-out: IC50 BRD4BD1) is 10.1 nM. For the same molecule, in data set [1], the “TR-FRETmax (520 nm/490 nm ratio)” value amounted to 0.16 and the “BRD4BD2-DCAF16 ternary complex formation / DCAF16 recruitment (in words)” value is “no significant DCAF16 recruitment”. In addition, the IC50 on BRD4BD2 [3] (read-out: IC50 BRD4BD2) stood at 3.92 nM. At BRD4BD2 [4], the Dmax turned out to be 10%, the “DCAF16 dependent BRD4BD2 degradation (in words)” value is “completely inactive” and the DC50 is more than 10000 nM.

On to `Cc1sc2c(c1C)C(c1ccc(I)cc1)=N[C@@H](CC(=O)OC(C)(C)C)c1nnc(C)n1-2` [MMH263, tert-butyl (S)-2-(4-(4-iodophenyl)-2,3,9-trimethyl-6H-thieno[3,2-f][1,2,4]triazolo[4,3-a][1,4]diazepin-6-yl)acetate], for which the IC50 at BRD4BD1 was 11.7 nM; at BRD4BD2 [3], 4.96 nM.

`Cc1sc2c(c1C)C(c1ccc(/C=C/C=O)cc1)=N[C@@H](CC(=O)OC(C)(C)C)c1nnc(C)n1-2` [TMX1, tert-butyl (S,E)-2-(2,3,9-trimethyl-4-(4-(3-oxoprop-1-en-1-yl)phenyl)-6H-thieno[3,2-f][1,2,4]triazolo[4,3-a][1,4]diazepin-6-yl)acetate]: on BRD4BD1 (read-out: IC50 BRD4BD1), the IC50 worked out at 8.78 nM. On BRD4 [5], the “BRD4 degradation by Western blot (in words)” value is reported as “nearly complete BRD4 degradation”. Further, on BRD4 [6], the “BRD4 degradation in DCAF16 KO (in words)” value was “completely rescued by DCAF16 KO”. Also, in data set [1], the “TR-FRETmax (520 nm/490 nm ratio)” value came to 1.34 and the “incubation time of saturation / maximum TR-FRET signal” value amounted to 1 h. Besides, on BRD4 [7], the “BRD4 degradation by Western blot in DCAF16 KO (in words)” value is “completely rescued by DCAF16 KO”. For the same molecule, the half-life with glutathione is 6.92 h. Besides, at BRD4 [8], the BRD4 degradation is reported as less than 60% and the “BRD4 degradation (in words)” value is recorded as “noticeable BRD4 degradation”. Also, the “BRD4 degradation after washout compared to no washout (in words)” value at BRD4 [2] is recorded as “no or minimal difference”. Also, the IC50 at BRD4BD2 [3] (read-out: IC50 BRD4BD2) is 33.9 nM. In addition, at BRD4BD2 [4], the Dmax came to 75% and the DC50 was 64 nM.

Turning to `Cc1sc2c(c1C)C(c1ccc(C#CC=O)cc1)=N[C@@H](CC(=O)OC(C)(C)C)c1nnc(C)n1-2` [TMX4128, tert-butyl (S)-2-(2,3,9-trimethyl-4-(4-(3-oxoprop-1-yn-1-yl)phenyl)-6H-thieno[3,2-f][1,2,4]triazolo[4,3-a][1,4]diazepin-6-yl)acetate], at BRD4BD1 (read-out: IC50 BRD4BD1), the IC50 came to 2.2 nM. The “BRD4 degradation by Western blot (in words)” value at BRD4 [5] was “nearly complete BRD4 degradation”. The “BRD4 degradation in DCAF16 KO (in words)” value at BRD4 [6] was “completely rescued by DCAF16 KO”. Besides, in data set [1], the “TR-FRETmax (520 nm/490 nm ratio)” value turned out to be 0.65, the “incubation time of saturation / maximum TR-FRET signal” value is reported as 1 h and the “BRD4BD2-DCAF16 ternary complex formation / DCAF16 recruitment (in words)” value was “disintegration of the ternary complex overtime”. On BRD4 [7], the “BRD4 degradation by Western blot in DCAF16 KO (in words)” value is “completely rescued by DCAF16 KO”. In the data set with glutathione, the half-life is 8.83 h. At BRD4 [8], the BRD4 degradation was less than 60% and the “BRD4 degradation (in words)” value is “noticeable BRD4 degradation”. Also, the BRD4 degradation on BRD4 [8] (at 10 μM) is reported as ~ 73%. The “BRD4 degradation after washout compared to no washout (in words)” value at BRD4 [2] is “no or minimal difference”. For the same molecule, on BRD4BD2 [3] (read-out: IC50 BRD4BD2), the IC50 turned out to be 21.7 nM. On BRD4BD2 [4], the Dmax amounted to 69% and the DC50 stood at 703 nM.
